This is an account of results in patent US10350199B2, “3-(1h-pyrrolo[2,3-b]pyridin-2-yl)-1h-indazoles and therapeutic uses thereof” (Samumed, LLC, priority 2015, dated 2019).

Assay type in all cases: cell-based
The test system of one test is SW480 colon cancer cells. As to the kind of experiment: Cell viability assay (CellTiter-Blue), SW480 cells, four days. Particulars: Homo sapiens; for EC50: 96 h, SW480 cell viability, four days, CellTiter-Blue; for inhibition at 10 µM: SW480, read-out: percent inhibition at 10 μM. How it is done: Representative compounds were screened using the following assay procedure to assess the effect on cell viability as described below.
Approximately 2×10^3 SW480 colon cancer cells were seeded into each well and allowed to incubate in the presence or absence of compound for four days at 37° C./5% CO2. Eight replicates of DMSO-treated cells served as controls and cells treated with compound were performed in duplicate.
After incubation, 20 μL of CellTiter-Blue (Promega) was added to each well allowed to incubate for approximately 3 hours. This reagent was a buffered solution which contains resazurin, metabolically active cells were able to reduce rezarurin (blue) into resorufin (pink) which was highly fluorescent. This measured fluorescence was used as a readout for cell viability.
For orientation: The colour change of resazurin is a common sign of viable cells or microbes.

For test [1], the system named is Wnt activity (Sp5-Luc reporter, SW480 colon carcinoma cells). Description: Wnt activity screening assay, Sp5-Luc reporter gene in SW480 cells. Particulars: Homo sapiens; for inhibition at 10 µM: SW480, read-out: percent inhibition at 10 μM; for EC50: Sp5-Luc reporter, SW480 cells, overnight incubation. The text has this: The screening assay for Wnt activity is described as follows. Reporter cell lines can be generated by stably transducing cancer cell lines (e.g., colon cancer) or primary cells (e.g., IEC-6 intestinal cells) with a lentiviral construct that includes a Wnt-responsive promoter driving expression of the firefly luciferase gene.
SW480 colon carcinoma cells were transduced with a lentiviral vector expressing luciferase with a human Sp5 promoter consisting of a sequence of eight TCF/LEF binding sites. SW480 cells stably expressing the Sp5-Luc reporter gene and a hygromycin resistance gene were selected by treatment with 150 μg/mL of hygromycin for 7 days. These stably transduced SW480 cells were expanded in cell culture and used for all further screening activities. […] For Sp5-Luc reporter gene assays, the cells were plated at 4,000 cells/well in 384-well plates with medium containing 1% fetal bovine serum and incubated overnight at 37° C. and 5% CO2. Following incubation, 20 μl of BrightGlo luminescence reagent (Promega) was added to each well of the 384-well assay plates. The plates were placed on an orbital shaker for 2 min and then luminescence was quantified using the Envision (Perkin Elmer) plate reader. Readings were normalized to DMSO only treated cells, and normalized activities were utilized for EC50 calculations using the dose-response log (inhibitor) vs. response -variable slope (four parameters) nonlinear regression feature available in GraphPad Prism 5.0 (or Dotmatics).
In general terms: A reporter such as luciferase makes a cellular process visible.

Test [2] has as its system primary human fibroblasts derived from IPF patients (LL29 cells) treated with TGF-β1. As to the kind of experiment: Inhibition of the fibrotic process: αSMA staining in TGF-β1 treated LL29 fibroblasts. As to conditions: Fibroblast; for EC50: 96 h, LL29 cells, TGF-β1 20 ng/mL, 4 days, % αSMA positive cells; for inhibition at 10 µM: read-out: percent inhibition at 10 μM. As to the method:
Representative compounds were screened using primary human fibroblasts (derived from IPF patients) treated with TGF-β1 to determine their ability to inhibit the fibrotic process.
LL29 cells are plated at 1,500 cells/well in 80 μL/well F12 medium supplemented with 1% Fetal Bovine Serum. […] Wells treated with TGF-β1 and containing DMSO were used as controls. […] Following incubation for 4 days, SYTOX green nucleic acid stain (Life Technologies [Thermo Fisher Scientific]) was added to the wells at a final concentration of 1 μM and incubated at room temperature for 30 min.

Test [3] concerns IL-6 (THP-1 human monocyte cell line). Description: IL-6 inhibition in LPS-stimulated THP-1 cells (HTRF). As to conditions: for EC50: IL-6 inhibition, LPS-stimulated THP-1 cells, HTRF; for inhibition at 10 µM: THP-1, read-out: percentage in parentheses beside EC50 >10 (IL-6 inhibition). As to the method:
THP-1 cells were cultured in basal media with 1% FBS for 24 hours before the start of the assay. […] THP-1 cells were plated at 5000 cells/well in the 384-well plates and incubated at 37° C. for 2 h. 500 ng/mL of LPS was added after 2 hours and cells were incubated for another 22 hours at 37° C. Plates were spun in a centrifuge for 1 minute at […] and a mixture of anti-IL6 XL665, and anti-IL6 Cryptate diluted in reconstitution buffer (Cisbio Inc.) was added to each well. Following incubation for 3 hrs at room temperature, Homogeneous Time-Resolved Fluorescence (HTRF) was measured using the Envision (Perkin Elmer) at 665 nm and […]. The ratio of fluorescence at 665 nm to 620 nm was used as a readout for IL6 quantification. All samples were processed in duplicate. Readings were normalized to DMSO treated cells and normalized activities were utilized for EC50 calculations using the dose-response log (inhibitor) vs. response -variable slope (four parameters) nonlinear regression feature available in GraphPad Prism 5.0 (or Dotmatics).

Each structure is given as a SMILES string.

`CC(C)(C)CC(=O)Nc1cncc(-c2ccc3[nH]nc(-c4cc5c(-c6ccccc6F)ccnc5[nH]4)c3c2)c1` [Compound 72, N-(5-(3-(4-(2-Fluorophenyl)-1H-pyrrolo[2,3-b]pyridin-2-yl)-1H-indazol-5-yl)pyridin-3-yl)-3,3-dimethylbutanamide]: the EC50 (in the test with SW480 colon cancer cells; in test [1]; in test [2]; in test [3]) was more than 10 µM each time. Also, the inhibition at 10 µM stood at 12.6% in the test with SW480 colon cancer cells, 9.3% in test [1], 5.4% in test [2] and 10.5% in test [3].
For `CCCCC(=O)Nc1cncc(-c2ccc3[nH]nc(-c4cc5c(-c6ccccc6F)ccnc5[nH]4)c3c2)c1` [Compound 75, N-(5-(3-(4-(2-Fluorophenyl)-1H-pyrrolo[2,3-b]pyridin-2-yl)-1H-indazol-5-yl)pyridin-3-yl)pentanamide], the EC50 (with SW480 colon cancer cells; in test [1]; in test [2]; in test [3]) was more than 10 µM in each case. In addition, the inhibition at 10 µM in the test on SW480 colon cancer cells was determined as 16.8%; in test [1], 13%; in test [2], 29.1%; in test [3], 38.2%.
For the compound `O=C(Nc1cncc(-c2ccc3[nH]nc(-c4cc5c(-c6ccccc6F)ccnc5[nH]4)c3c2)c1)C1CCCC1` [Compound 78, N-(5-(3-(4-(2-Fluorophenyl)-1H-pyrrolo[2,3-b]pyridin-2-yl)-1H-indazol-5-yl)pyridin-3-yl)cyclopentanecarboxamide], the EC50 (in the test with SW480 colon cancer cells; in test [1]; in test [2]; in test [3]) was more than 10 µM in each case. The inhibition at 10 µM is 14.4% in the test with SW480 colon cancer cells, 1.9% in test [1], 39% in test [2] and 39.9% in test [3].
With `O=C(Cc1ccccc1)Nc1cncc(-c2ccc3[nH]nc(-c4cc5c(-c6ccncc6)ccnc5[nH]4)c3c2)c1` [Compound 122, 2-Phenyl-N-(5-(3-(4-(pyridin-4-yl)-1H-pyrrolo[2,3-b]pyridin-2-yl)-1H-indazol-5-yl)pyridin-3-yl)acetamide], the EC50 in the test with SW480 colon cancer cells was 1.95 µM; in test [1], more than 10 µM; in test [2] it was 6.18 µM; in test [3], more than 10 µM. Moreover, the figures for the inhibition at 10 µM in test [1] and in test [3] were 28.3% and 47.3%, respectively.
For `CCC(=O)Nc1cncc(-c2ccc3[nH]nc(-c4cc5c(-c6ccccn6)ccnc5[nH]4)c3c2)c1` [Compound 141, N-(5-(3-(4-(Pyridin-2-yl)-1H-pyrrolo[2,3-b]pyridin-2-yl)-1H-indazol-5-yl)pyridin-3-yl)propionamide], the EC50 was 6.07 µM in the test on SW480 colon cancer cells, 0.238 µM in test [1], 1.66 µM in test [2] and more than 10 µM in test [3]. The inhibition at 10 µM in test [3] turned out to be 30.3%.
As for `O=C(Nc1cncc(-c2ccc3[nH]nc(-c4cc5c(-c6ccccn6)ccnc5[nH]4)c3c2)c1)C1CCCCC1` [Compound 163, N-(5-(3-(4-(Pyridin-2-yl)-1H-pyrrolo[2,3-b]pyridin-2-yl)-1H-indazol-5-yl)pyridin-3-yl)cyclohexanecarboxamide], the EC50 with SW480 colon cancer cells is more than 10 µM; in test [1] it was more than 10 µM; in test [2], more than 10 µM; in test [3] it was 1.54 µM. Besides, the inhibition at 10 µM with SW480 colon cancer cells is 11.1%; in test [1] it was 38.8%; in test [2], 0%.
In the case of `CCC(=O)Nc1cncc(-c2ccc3[nH]nc(-c4cc5c(N6CCCCC6)ccnc5[nH]4)c3c2)c1` [Compound 169, N-(5-(3-(4-(Piperidin-1-yl)-1H-pyrrolo[2,3-b]pyridin-2-yl)-1H-indazol-5-yl)pyridin-3-yl)propionamide], the EC50 with SW480 colon cancer cells is more than 10 µM; in test [1], 1.22 µM; in test [2], more than 10 µM; in test [3], more than 10 µM. Further, the inhibition at 10 µM was found to be 38.1% in the test on SW480 colon cancer cells, 11.6% in test [2] and 33% in test [3].
In the case of `CN(C)c1cncc(-c2ccc3[nH]nc(-c4cc5c(N6CCCCC6)ccnc5[nH]4)c3c2)c1` [Compound 175, N,N-Dimethyl-5-(3-(4-(piperidin-1-yl)-1H-pyrrolo[2,3-b]pyridin-2-yl)-1H-indazol-5-yl)pyridin-3-amine], the EC50 (with SW480 colon cancer cells; in test [1]; in test [2]; in test [3]) was more than 10 µM in each case. For the same compound, the inhibition at 10 µM in the test with SW480 colon cancer cells worked out at 13.1%; in test [1], 10.7%; in test [2], 11.3%; in test [3], 15.2%.
For `O=C(Cc1ccccc1)Nc1cncc(-c2ccc3[nH]nc(-c4cc5c(N6CCCCC6)ccnc5[nH]4)c3c2)c1` [Compound 178, 2-Phenyl-N-(5-(3-(4-(piperidin-1-yl)-1H-pyrrolo[2,3-b]pyridin-2-yl)-1H-indazol-5-yl)pyridin-3-yl)acetamide], the EC50 (with SW480 colon cancer cells; in test [1]; in test [2]; in test [3]) was more than 10 µM throughout. Also, the inhibition at 10 µM was 18.7% in the test on SW480 colon cancer cells, 13.8% in test [1], 0% in test [2] and 36.5% in test [3].
For `CN(C)Cc1cncc(-c2ccc3[nH]nc(-c4cc5c(N6CCCCC6)ccnc5[nH]4)c3c2)c1` [Compound 181, N,N-Dimethyl-1-(5-(3-(4-(piperidin-1-yl)-1H-pyrrolo[2,3-b]pyridin-2-yl)-1H-indazol-5-yl)pyridin-3-yl)methanamine], the EC50 (in the test with SW480 colon cancer cells; in test [1]; in test [2]; in test [3]) was more than 10 µM throughout. Also, the inhibition at 10 µM was 17.6% in the test on SW480 colon cancer cells, 26.2% in test [1], 9.1% in test [2] and 29% in test [3].
Turning to `CC(C)(C)CC(=O)Nc1cncc(-c2ccc3[nH]nc(-c4cc5c(N6CCCCC6)ccnc5[nH]4)c3c2)c1` [Compound 184, 3,3-Dimethyl-N-(5-(3-(4-(piperidin-1-yl)-1H-pyrrolo[2,3-b]pyridin-2-yl)-1H-indazol-5-yl)pyridin-3-yl)butanamide], the EC50 is more than 10 µM in the test on SW480 colon cancer cells, more than 10 µM in test [1], more than 10 µM in test [2] and 3.99 µM in test [3]. Moreover, the inhibition at 10 µM with SW480 colon cancer cells stood at 1.6%; in test [1] it was 11.9%.
With `O=C(Nc1cncc(-c2ccc3[nH]nc(-c4cc5c(N6CCCCC6)ccnc5[nH]4)c3c2)c1)C1CC1` [Compound 188, N-(5-(3-(4-(Piperidin-1-yl)-1H-pyrrolo[2,3-b]pyridin-2-yl)-1H-indazol-5-yl)pyridin-3-yl)cyclopropanecarboxamide], the EC50 (in the test with SW480 colon cancer cells; in test [1]; in test [2]; in test [3]) was more than 10 µM throughout. Further, the inhibition at 10 µM in the test with SW480 colon cancer cells came out at 12.9%; in test [1], 27.6%; in test [2], 17.4%; in test [3], 4.1%.

As a reminder, the EC50 is the concentration that produces a half-maximal response. Higher therefore signals lower potency in that assay. As usually defined, the inhibition is the percentage by which the read-out fell short of the control.
